Data on nine compounds can be found in ChEMBL document CHEMBL1201862, “PubChem BioAssay data set” (2004).

Among the test systems are SR; CAKI-1; LOX IMVI; SF-539; RPMI-8226; CCRF-CEM; SW-620; NCI-H460; HOP-62; KM12; ACHN; NCI-H226; HL-60; DU-145; UACC-62; COLO 205; BT-549; RXF 393; NCI-H522; MCF7.
Common to all, as to experiment: DTP human tumour cell line panel, 48 h

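96-well plates; 48 h exposure; 5 concentrations. Endpoints by linear interpolation between flanking doses. Not reached: highest tested concentration assigned. Abbreviation: GI50, concentration required for 50% inhibition of growth.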 The source made the active and inactive calls. Cut-off read from the data, not from the text of the source: active = GI50 up to about 1.1 µM and inactive = higher. Square brackets hold non-standard residues; d marks the D form. Peptide text beside a SMILES is read from it. * marks the point of attachment. ξ: configuration not given here. NMeN = CN[C@@H](CC(N)=O)C(=O)O; NMeV = CN[C@H](C(=O)O)C(C)C; ξNMeV = CNC(C(=O)O)C(C)C; Boc = CC(C)(C)OC(=O)*; ξNMeA = CNC(C)C(=O)O

What is called GI50 is the concentration at which growth is held to half of that of the control.

Turning to `CCOC(=O)CCC(C(=O)OCC)n1nnc2ccc(Nc3c(C)[n+]([O-])c4ccc(Cl)cc4[n+]3[O-])cc21` (stereo not given), the GI50 is 33 µM (inactive) with SR; 49.2 µM (inactive) in the assay with CAKI-1; 28.8 µM (inactive) with LOX IMVI; 38.5 µM (inactive) in the assay on SF-539; 28.6 µM (inactive) in the assay on RPMI-8226; 35 µM (inactive) with CCRF-CEM. Further, the GI50 is 54 µM (inactive) with SW-620; 49.7 µM (inactive) with NCI-H460; 36.1 µM (inactive) in the assay with HOP-62; 91.2 µM (inactive) with KM12; 28.6 µM (inactive) with ACHN; 22.4 µM (inactive) in the assay on NCI-H226. Moreover, the GI50 in the assay on HL-60 was 39.2 µM (inactive); in the assay on DU-145 it was 50.6 µM (inactive); in the assay on UACC-62, 30.4 µM (inactive); with COLO 205, 37.4 µM (inactive); in the assay with BT-549 it was 54.3 µM (inactive); with RXF 393, 26.9 µM (inactive). Besides, the GI50 is 43.4 µM (inactive) in the assay with NCI-H522 and 19.9 µM (inactive) in the assay on MCF7.
On to `CC(C)C1OCC(CO)CO1` (stereo not given), for which the GI50 in the assay on SR, in the assay with CAKI-1, in the assay with LOX IMVI, with SF-539, with RPMI-8226 and in the assay with CCRF-CEM was > 100 µM (inactive) throughout. For the same compound, the GI50 in the assay on SW-620, with NCI-H460, in the assay with HOP-62, with KM12, in the assay with ACHN and in the assay on NCI-H226 was > 100 µM (inactive) each time. Further, the GI50 in the assay with HL-60 was > 100 µM (inactive); in the assay on DU-145, > 100 µM (inactive); in the assay with UACC-62 it was > 100 µM (inactive); with COLO 205 it was > 100 µM (inactive); in the assay on BT-549 it was 31.6 µM (inactive); with RXF 393, > 100 µM (inactive). The GI50 with NCI-H522 and in the assay on MCF7 was > 100 µM (inactive) in each case.
Consider `OCCc1ccsc1-c1sc(-c2cc(CCO)c(-c3sc(-c4cc(CCO)c(-c5sccc5CCO)s4)cc3CCO)s2)cc1CCO`, for which the GI50 is 0.684 µM (active) with SR; 1.48 µM (inactive) in the assay with CAKI-1; 0.617 µM (active) in the assay on LOX IMVI; 1.44 µM (inactive) in the assay on SF-539; 0.344 µM (active) with RPMI-8226; 0.647 µM (active) with CCRF-CEM. The GI50 in the assay on SW-620 was 1.31 µM (inactive); in the assay on NCI-H460, 0.841 µM (active); in the assay with HOP-62, 1.38 µM (inactive); in the assay with KM12, 0.621 µM (active); in the assay with ACHN it was 1.47 µM (inactive); in the assay with NCI-H226, 1.65 µM (inactive). The GI50 with HL-60 is 1.53 µM (inactive); in the assay on DU-145, 1.34 µM (inactive); in the assay on UACC-62 it was 1.56 µM (inactive); in the assay with COLO 205, 1.54 µM (inactive); in the assay with BT-549, 0.634 µM (active); with RXF 393, 0.454 µM (active). Besides, the figures for the GI50 in the assay on NCI-H522 and with MCF7 were 0.807 µM (active) and 0.624 µM (active), respectively.
As to `CC1(COS(=O)(=O)OCC2(C)COS(=O)(=O)OC2)COS(=O)(=O)OC1`, the GI50 was > 24.9 µM (inactive) in the assay with SR; > 100 µM (inactive) in the assay with CAKI-1; > 40.5 µM (inactive) with LOX IMVI; > 100 µM (inactive) in the assay with SF-539; > 20.2 µM (inactive) with RPMI-8226; > 28.2 µM (inactive) in the assay on CCRF-CEM. Moreover, the GI50 in the assay with SW-620 is > 55.2 µM (inactive); with NCI-H460, > 42.3 µM (inactive); in the assay on HOP-62 it was 62.2 µM (inactive); in the assay on KM12 it was > 32.7 µM (inactive); in the assay on ACHN it was > 32.3 µM (inactive); in the assay on NCI-H226 it was > 41.5 µM (inactive). Besides, the GI50 in the assay with HL-60 was > 35.1 µM (inactive); in the assay with DU-145 it was > 36.5 µM (inactive); in the assay on UACC-62, > 61.8 µM (inactive); in the assay on COLO 205 it was > 51.6 µM (inactive); in the assay with BT-549 it was > 48.8 µM (inactive); with RXF 393, > 64.7 µM (inactive). The GI50 with NCI-H522 was > 61.1 µM (inactive); with MCF7 it was > 22.3 µM (inactive).
In the case of `COc1cc(CCNC2=CC(=O)c3ncccc3C2=O)ccc1O`, the GI50 was 3.48 µM (inactive) in the assay on SR; 3.94 µM (inactive) in the assay with CAKI-1; 0.65 µM (active) with LOX IMVI; 3.04 µM (inactive) with SF-539; 6.76 µM (inactive) with RPMI-8226; 3.56 µM (inactive) in the assay with CCRF-CEM. Also, the GI50 in the assay with SW-620 is 2.84 µM (inactive); with NCI-H460, 1.02 µM (active); in the assay on HOP-62 it was 2.39 µM (inactive); in the assay with KM12, 5.25 µM (inactive); in the assay on ACHN, 4.71 µM (inactive); with NCI-H226, 2.7 µM (inactive). Moreover, the GI50 was 3.01 µM (inactive) in the assay on HL-60; 3.6 µM (inactive) in the assay on DU-145; 1.96 µM (inactive) in the assay on UACC-62; 18.6 µM (inactive) in the assay on COLO 205; 1.46 µM (inactive) with BT-549; 5.45 µM (inactive) in the assay with RXF 393. Besides, the GI50 is 2.08 µM (inactive) with NCI-H522 and 2.44 µM (inactive) with MCF7.
Consider `COc1ccc(/N=N/N2CCCC2)cc1`, for which the GI50 in the assay with SR is 48.3 µM (inactive); in the assay on CAKI-1, 16.2 µM (inactive); in the assay on LOX IMVI, 16.1 µM (inactive); with SF-539, 29.8 µM (inactive); with RPMI-8226, 26.1 µM (inactive); in the assay with CCRF-CEM, 16.7 µM (inactive). In addition, the GI50 with SW-620 is 26.8 µM (inactive); in the assay with NCI-H460, > 100 µM (inactive); in the assay on HOP-62, > 100 µM (inactive); in the assay on KM12 it was 0.305 µM (active); in the assay on ACHN, 15.5 µM (inactive); in the assay on NCI-H226, > 100 µM (inactive). Further, the GI50 with HL-60 was 30.1 µM (inactive); in the assay with DU-145, > 100 µM (inactive); with UACC-62 it was 30.9 µM (inactive); with COLO 205, 17.9 µM (inactive); in the assay on BT-549 it was 23.2 µM (inactive); in the assay with RXF 393, 26.1 µM (inactive). The GI50 in the assay with NCI-H522 is 12.9 µM (inactive); in the assay with MCF7, 30.8 µM (inactive).
Regarding `Cc1ccccc1C1CC(=O)CC(c2ccccc2C)C12C(=O)NC(=O)NC2=O` (stereo not given), the GI50 in the assay with SR is > 100 µM (inactive); with CAKI-1 it was > 100 µM (inactive); in the assay with LOX IMVI, > 100 µM (inactive); in the assay on SF-539, > 32.4 µM (inactive); in the assay with RPMI-8226, 26.9 µM (inactive); in the assay with CCRF-CEM it was > 65.3 µM (inactive). The GI50 in the assay on SW-620 was > 100 µM (inactive); in the assay with NCI-H460, > 88.5 µM (inactive); in the assay with HOP-62 it was > 100 µM (inactive); in the assay with KM12, > 100 µM (inactive); in the assay on ACHN it was > 100 µM (inactive); in the assay on NCI-H226, > 100 µM (inactive). Besides, the GI50 is 55 µM (inactive) in the assay on HL-60; > 100 µM (inactive) in the assay on DU-145; > 100 µM (inactive) in the assay with UACC-62; > 100 µM (inactive) in the assay with COLO 205; > 100 µM (inactive) in the assay with BT-549; > 100 µM (inactive) in the assay on RXF 393. For the same compound, the GI50 with NCI-H522 is > 75.3 µM (inactive); in the assay with MCF7, > 73.6 µM (inactive).
In the case of `COC(=O)C(C)N(C)C(=O)[C@H](CC(N)=O)N(C)C(=O)[C@@H]1CCCN1C(=O)[C@H](C(C)C)N(C)C(=O)C(C(C)C)N(C)C(=O)[C@@H](NC(=O)OC(C)(C)C)C(C)C` (stereo not given in full) (Boc-V[ξNMeV][NMeV]P[NMeN][ξNMeA]-OMe), the GI50 in the assay with SR was > 100 µM (inactive); with CAKI-1, > 50 µM (inactive); in the assay on LOX IMVI, 23.9 µM (inactive); in the assay with SF-539, > 50 µM (inactive); in the assay on RPMI-8226, > 50 µM (inactive); in the assay with CCRF-CEM, > 50 µM (inactive). Further, the GI50 in the assay on SW-620 is > 50 µM (inactive); in the assay with NCI-H460 it was > 50 µM (inactive); in the assay with HOP-62, > 50 µM (inactive); in the assay on KM12, > 100 µM (inactive); in the assay with ACHN, > 50 µM (inactive); in the assay with NCI-H226 it was > 50 µM (inactive). The GI50 in the assay on HL-60 is 15.1 µM (inactive); in the assay on DU-145, > 50 µM (inactive); in the assay with UACC-62 it was > 50 µM (inactive); with COLO 205, > 50 µM (inactive); in the assay on BT-549 it was > 50 µM (inactive); in the assay on RXF 393, > 50 µM (inactive). Moreover, the GI50 with NCI-H522 and in the assay with MCF7 was > 50 µM (inactive) each time.
On to `CC(C)=CCC[C@@H](C)C1=C(N)C(=O)C(C)=C(O)C1=O`, for which the GI50 in the assay with SR is 26.3 µM (inactive); in the assay on CAKI-1, 35.2 µM (inactive); in the assay on LOX IMVI, 36.6 µM (inactive); in the assay with SF-539, 41.7 µM (inactive); with RPMI-8226 it was 39.8 µM (inactive); in the assay with CCRF-CEM it was 18.7 µM (inactive). The GI50 in the assay with SW-620 was 41.3 µM (inactive); in the assay on NCI-H460, 33.7 µM (inactive); in the assay on HOP-62, 55.1 µM (inactive); in the assay with KM12, 32.7 µM (inactive); in the assay on ACHN it was 18.8 µM (inactive); in the assay on NCI-H226, 27.5 µM (inactive). The GI50 in the assay on HL-60 is 13 µM (inactive); in the assay with DU-145, > 75 µM (inactive); with UACC-62, 31.1 µM (inactive); in the assay with COLO 205 it was 29.2 µM (inactive); in the assay on BT-549, > 75 µM (inactive); with RXF 393, > 75 µM (inactive). Moreover, the GI50 with NCI-H522 is 25.8 µM (inactive); in the assay on MCF7 it was 61.5 µM (inactive).
